In ChEMBL document CHEMBL1132784, “Dibasic inhibitors of human mast cell tryptase. Part 2: structure-activity relationships and requirements for potent activity” (Bioorg Med Chem Lett, 2000):

Tests used:
[1] = target: Plasminogen (Homo sapiens, UniProt P00747); assay: Compound was evaluated for its inhibitory potency against plasmin
[2] = target: Tryptase (Homo sapiens, UniProt Q9BZJ3+Q15661+Q9NRR2); assay: Evaluated for its inhibitory potency against tryptase; type: protein assay
[3] = target: Prothrombin (Homo sapiens, UniProt P00734); assay: Compound was evaluated for its inhibitory potency against thrombin
[4] = target: Serine protease 1 (Homo sapiens, UniProt P07477); assay: Compound was evaluated for its inhibitory potency against trypsin
Chain of Serine protease 1 (P07477 whole entry): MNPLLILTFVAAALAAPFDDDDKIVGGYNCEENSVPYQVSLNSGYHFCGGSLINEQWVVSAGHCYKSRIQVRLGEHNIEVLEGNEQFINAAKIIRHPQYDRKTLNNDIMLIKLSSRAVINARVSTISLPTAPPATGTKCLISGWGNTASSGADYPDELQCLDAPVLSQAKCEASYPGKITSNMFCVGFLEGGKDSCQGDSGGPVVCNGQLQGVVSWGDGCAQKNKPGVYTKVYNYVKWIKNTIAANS

Chain of Plasminogen (P00747 97-580 limits assumed): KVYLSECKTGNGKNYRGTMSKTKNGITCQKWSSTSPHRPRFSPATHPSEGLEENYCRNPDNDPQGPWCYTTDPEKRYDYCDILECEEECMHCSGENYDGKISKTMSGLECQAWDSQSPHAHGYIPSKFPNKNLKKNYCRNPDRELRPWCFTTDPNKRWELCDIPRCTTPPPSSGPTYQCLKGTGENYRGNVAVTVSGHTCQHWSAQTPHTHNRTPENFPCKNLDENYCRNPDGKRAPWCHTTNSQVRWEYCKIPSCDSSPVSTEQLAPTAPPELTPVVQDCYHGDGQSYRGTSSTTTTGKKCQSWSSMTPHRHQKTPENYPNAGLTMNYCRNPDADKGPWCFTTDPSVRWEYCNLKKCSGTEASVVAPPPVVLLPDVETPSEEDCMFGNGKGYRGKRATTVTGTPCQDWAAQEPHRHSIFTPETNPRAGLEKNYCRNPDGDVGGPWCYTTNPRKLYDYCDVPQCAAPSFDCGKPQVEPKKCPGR
Chain of Plasminogen (P00747 581-810 limits assumed): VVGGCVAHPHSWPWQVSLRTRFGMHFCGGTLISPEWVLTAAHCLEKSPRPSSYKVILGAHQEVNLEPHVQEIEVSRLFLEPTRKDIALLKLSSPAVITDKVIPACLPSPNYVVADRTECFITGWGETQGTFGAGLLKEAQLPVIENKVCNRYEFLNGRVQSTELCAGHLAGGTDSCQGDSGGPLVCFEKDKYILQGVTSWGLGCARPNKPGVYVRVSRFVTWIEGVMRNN

| Structure (SMILES) | Ki [1] [µM] | Ki [2] [µM] | Ki [3] [µM] | Ki [4] [µM] |
| --- | --- | --- | --- | --- |
| N=C(N)Nc1ccc(CNC(=O)N2CCN(C(=O)O[C@H]3CCC[C@@H](OC(=O)N4CCN(C(=O)CCc5cnc(N)nc5)CC4)CCC3)CC2)cc1 | > 1000 | 41 | > 1000 | 165 |
| N=C(N)c1ccc(CCC(=O)N2CCN(C(=O)O[C@H]3CCC[C@@H](OC(=O)N4CCN(C(=O)CCc5ccc(C(=N)N)cc5)CC4)CCC3)CC2)cc1 | 66 | 0.0004 | 29 | 21 |
| N=C(N)c1ccc(CCNC(=O)N2CCN(C(=O)O[C@H]3CCC[C@@H](OC(=O)N4CCN(C(=O)NCCc5ccc(C(=N)N)cc5)CC4)CCC3)CC2)cc1 | 60 | 0.44 | 36 | 66 |
| N=C(N)Nc1ccc(CNC(=O)N2CCN(C(=O)OCC34CCC(COC(=O)N5CCN(C(=O)NCc6ccc(NC(=N)N)cc6)CC5)(CC3)CC4)CC2)cc1 | 3 | 0.0004 | 123 | 20 |
| N=C(N)Nc1ccc(CNC(=O)N2CCN(C(=O)O[C@H]3CCC[C@@H](OC(=O)N4CCN(C(=O)NC[C@H]5CC[C@@H](N)CC5)CC4)CCC3)CC2)cc1 | > 1000 | 0.078 | 274 | 171 |
| NCCCCNC(=O)N1CCN(C(=O)O[C@H]2CCC[C@@H](OC(=O)N3CCN(C(=O)NCCCCN)CC3)CCC2)CC1 | > 1000 | 0.51 | > 1000 | > 1000 |
| N=C(N)c1ccc(CC(=O)N2CCN(C(=O)O[C@H]3CCC[C@@H](OC(=O)N4CCN(C(=O)Cc5ccc(C(=N)N)cc5)CC4)CCC3)CC2)cc1 | 155 | 0.0002 | 34 | 11 |
| CC(=N)N1CCC(CCNC(=O)N2CCN(C(=O)O[C@H]3CCC[C@@H](OC(=O)N4CCN(C(=O)NCCC5CCN(C(C)=N)CC5)CC4)CCC3)CC2)CC1 | > 1000 | 255 | > 1000 | > 1000 |
| CN1CCC(CCNC(=O)N2CCN(C(=O)O[C@H]3CCC[C@@H](OC(=O)N4CCN(C(=O)NCc5ccc(NC(=N)N)cc5)CC4)CCC3)CC2)CC1 | > 1000 | 3 | 269 | 110 |
| N=C(N)Nc1ccc(CNC(=O)N2CCN(C(=O)O[C@H]3CCC[C@@H](OC(=O)N4CCN(C(=O)CCCC5CCNCC5)CC4)CCC3)CC2)cc1 | > 1000 | 0.004 | > 1000 | 262 |
| N=C(N)Nc1ccc(CNC(=O)N2CCN(C(=O)O[C@H]3CCC[C@@H](OC(=O)N4CCN(C(=O)CCNc5ccncc5)CC4)CCC3)CC2)cc1 | > 1000 | 0.097 | > 1000 | 111 |
| N=C(N)Nc1ccc(CNC(=O)N2CCN(C(=O)O[C@H]3CCC[C@@H](OC(=O)N4CCN(C(=O)CCCn5ccnc5)CC4)CCC3)CC2)cc1 | > 1000 | > 1000 | > 1000 | 158 |
| N=C(N)N1CCC(CCNC(=O)N2CCN(C(=O)O[C@H]3CCC[C@@H](OC(=O)N4CCN(C(=O)NCCC5CCN(C(=N)N)CC5)CC4)CCC3)CC2)CC1 | 632 | 0.03 | 112 | 850 |
| CC(=N)N1CCC(CNC(=O)N2CCN(C(=O)O[C@H]3CCC[C@@H](OC(=O)N4CCN(C(=O)NCC5CCN(C(C)=N)CC5)CC4)CCC3)CC2)CC1 | > 1000 | > 1000 | > 1000 | > 1000 |
| O=C(CCCC1CCNCC1)N1CCN(C(=O)O[C@H]2CCC[C@@H](OC(=O)N3CCN(C(=O)CCCC4CCNCC4)CC3)CCC2)CC1 | > 1000 | 0.1 | > 1000 | > 1000 |
| O=C(NCCC1CCNCC1)N1CCN(C(=O)O[C@H]2CCC[C@@H](OC(=O)N3CCN(C(=O)NCCC4CCNCC4)CC3)CCC2)CC1 | > 1000 | 0.115 | > 1000 | > 1000 |
| N=C(N)Nc1ccc(CNC(=O)N2CCN(C(=O)O[C@H]3CCC[C@@H](OC(=O)N4CCN(C(=O)NCc5ccc(N)cc5)CC4)CCC3)CC2)cc1 | > 1000 | 0.82 | > 1000 | 126 |
| N=C(N)Nc1ccc(CNC(=O)N2CCN(C(=O)OC[C@H]3C4C=CC(CC4)[C@@H]3COC(=O)N3CCN(C(=O)NCc4ccc(NC(=N)N)cc4)CC3)CC2)cc1 | 700 | 0.008 | 138 | 15 |
| N=C(N)N1CCC(CC(=O)N2CCN(C(=O)O[C@H]3CCC[C@@H](OC(=O)N4CCN(C(=O)CC5CCN(C(=N)N)CC5)CC4)CCC3)CC2)CC1 | > 1000 | 0.005 | 130 | 445 |
| N=C(N)Nc1ccc(CNC(=O)N2CCN(C(=O)O[C@H]3CCC[C@@H](OC(=O)N4CCN(C(=O)NCc5ccccc5)CC4)CCC3)CC2)cc1 | – | 15 | – | – |
| N=C(N)Nc1ccc(CNC(=O)N2CCN(C(=O)O[C@H]3CCC[C@@H](OC(=O)N4CCN(C(=O)NCC5CCNCC5)CC4)CCC3)CC2)cc1 | > 1000 | 0.07 | > 1000 | 148 |

| Structure (SMILES) | Ki [1] [µM] | Ki [2] [µM] | Ki [3] [µM] | Ki [4] [µM] |
| --- | --- | --- | --- | --- |
| N=C(N)Nc1ccc(CC(=O)N2CCN(C(=O)O[C@H]3CCC[C@@H](OC(=O)N4CCN(C(=O)Cc5ccc(NC(=N)N)cc5)CC4)CCC3)CC2)cc1 | > 1000 | 0.0005 | 255 | 82 |
| N=C(N)Nc1ccc(CNC(=O)N2CCN(C(=O)CCCCCC(=O)N3CCN(C(=O)NCc4ccc(NC(=N)N)cc4)CC3)CC2)cc1 | > 1000 | 0.004 | > 1000 | 52 |
| CN(CCC1CCNCC1)C(=O)N1CCN(C(=O)O[C@H]2CCC[C@@H](OC(=O)N3CCN(C(=O)NCc4ccc(NC(=N)N)cc4)CC3)CCC2)CC1 | > 1000 | 0.68 | > 1000 | 126 |
| N=C(N)Nc1ccc(CNC(=O)N2CCN(C(=O)O[C@H]3CCC[C@@H](OC(=O)N4CCN(C(=O)NCCC5CCNCC5)CC4)CCC3)CC2)cc1 | > 1000 | 0.003 | > 1000 | 121 |
| N=C(N)Nc1ccc(CNC(=O)N2CCN(C(=O)CCCCCCCCC(=O)N3CCN(C(=O)NCc4ccc(NC(=N)N)cc4)CC3)CC2)cc1 | > 1000 | 0.0007 | > 1000 | 20 |
| N=C(N)Nc1ccc(CNC(=O)N2CCN(C(=O)O[C@H]3CCC[C@@H](OC(=O)N4CCN(C(=O)NCCCN)CC4)CCC3)CC2)cc1 | > 1000 | 0.044 | > 1000 | 138 |
| N=C(N)Nc1ccc(CNC(=O)N2CCN(C(=O)OCc3ccc(COC(=O)N4CCN(C(=O)NCc5ccc(NC(=N)N)cc5)CC4)cc3)CC2)cc1 | > 1000 | 0.0004 | > 1000 | 17 |
| NC[C@H]1CC[C@H](CNC(=O)N2CCN(C(=O)O[C@H]3CCC[C@@H](OC(=O)N4CCN(C(=O)NC[C@H]5CC[C@H](CN)CC5)CC4)CCC3)CC2)CC1 | > 1000 | 0.016 | > 1000 | > 1000 |
| NCCCCCCNC(=O)N1CCN(C(=O)O[C@H]2CCC[C@@H](OC(=O)N3CCN(C(=O)NCCCCCCN)CC3)CCC2)CC1 | > 1000 | 1 | > 1000 | > 1000 |
| N=C(N)Nc1ccc(CNC(=O)N2CCN(C(=O)CCCCCCCC(=O)N3CCN(C(=O)NCc4ccc(NC(=N)N)cc4)CC3)CC2)cc1 | > 1000 | 0.0005 | > 1000 | 29 |
| N=C(N)Nc1ccc(CNC(=O)N2CCN(C(=O)O[C@H]3CCC[C@@H](OC(=O)N4CCN(C(=O)CCc5ccc(N)nc5)CC4)CCC3)CC2)cc1 | > 1000 | 0.18 | > 1000 | 156 |
| NCC12CCC(CNC(=O)N3CCN(C(=O)O[C@H]4CCC[C@@H](OC(=O)N5CCN(C(=O)NCC67CCC(CN)(CC6)CC7)CC5)CCC4)CC3)(CC1)CC2 | > 1000 | 0.3 | > 1000 | 95 |
| N=C(N)Nc1ccc(CNC(=O)N2CCN(C(=O)CCCCC(=O)N3CCN(C(=O)NCc4ccc(NC(=N)N)cc4)CC3)CC2)cc1 | 316 | 0.044 | > 1000 | 54 |
| N=C(N)Nc1ccc(CNC(=O)N2CCN(C(=O)CCCCCCC(=O)N3CCN(C(=O)NCc4ccc(NC(=N)N)cc4)CC3)CC2)cc1 | > 1000 | 0.0001 | > 1000 | 34 |
| N=C(N)N1CCC(CNC(=O)N2CCN(C(=O)O[C@H]3CCC[C@@H](OC(=O)N4CCN(C(=O)NCC5CCN(C(=N)N)CC5)CC4)CCC3)CC2)CC1 | > 1000 | 0.61 | 146 | > 1000 |
| N=C(N)N1CCC(CCC(=O)N2CCN(C(=O)O[C@H]3CCC[C@@H](OC(=O)N4CCN(C(=O)CCC5CCN(C(=N)N)CC5)CC4)CCC3)CC2)CC1 | > 1000 | 0.002 | 213 | 171 |
| N=C(N)Nc1ccc(CNC(=O)N2CCN(C(=O)O[C@H]3CCC[C@@H](OC(=O)N4CCN(C(=O)CCCCCn5ccnc5)CC4)CCC3)CC2)cc1 | > 1000 | 0.03 | > 1000 | 171 |
| N=C(N)Nc1ccc(CNC(=O)N2CCN(C(=O)O[C@H]3C[C@H]4C[C@@H](OC(=O)N5CCN(C(=O)NCc6ccc(NC(=N)N)cc6)CC5)C[C@H]4C3)CC2)cc1 | – | 0.028 | > 1000 | 4 |
| N=C(N)Nc1ccc(CNC(=O)N2CCN(C(=O)O[C@@H]3CO[C@H]4[C@@H]3OC[C@H]4OC(=O)N3CCN(C(=O)NCc4ccc(NC(=N)N)cc4)CC3)CC2)cc1 | 700 | – | 138 | 15 |
| O=C(NCc1ccccc1)N1CCN(C(=O)O[C@H]2CCC[C@@H](OC(=O)N3CCN(C(=O)NCc4ccccc4)CC3)CCC2)CC1 | – | 101 | – | – |
| N=C(N)Nc1ccc(CNC(=O)N2CCN(C(=O)OC[C@H]3CC[C@H](COC(=O)N4CCN(C(=O)NCc5ccc(NC(=N)N)cc5)CC4)CC3)CC2)cc1 | > 1000 | 0.003 | – | 28 |
